From PMC13193486, “Phycocyanobilin biosynthesis in Galdieria sulphuraria requires isomerization of phycoerythrobilin synthesized by bilin reductases” (The Febs Journal, 2026)

Molecular target: T1, CmPCYA (Cyanidioschyzon merolae, UniProt M1V4R9)
T1 construct: gene CYME_CMG110C; N-terminal GST-tag, pGEX-6P-1, co-expressed with pGro7 chaperones in E. coli BL21(DE3)
T1 sequence (M1V4R9 1-325): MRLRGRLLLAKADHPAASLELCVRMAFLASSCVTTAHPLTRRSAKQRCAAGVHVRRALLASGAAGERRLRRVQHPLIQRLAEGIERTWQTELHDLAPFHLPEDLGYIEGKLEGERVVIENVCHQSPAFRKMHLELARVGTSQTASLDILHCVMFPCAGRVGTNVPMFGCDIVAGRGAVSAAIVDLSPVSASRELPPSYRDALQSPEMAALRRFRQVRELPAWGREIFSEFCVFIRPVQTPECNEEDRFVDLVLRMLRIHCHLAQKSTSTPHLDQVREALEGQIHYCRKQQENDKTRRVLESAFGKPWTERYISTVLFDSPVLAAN
Test: anaerobic bilin reductase assay, HPLC
Assay type: biochemical
Details: BV as substrate; PetF, FNR, NADPH-regenerating system; 20 °C

SMILES: CC=C1C(=Cc2[nH]c(C=C3N=C(C=C4NC(=O)C(CC)=C4C)C(C)=C3CCC(=O)O)c(CCC(=O)O)c2C)NC(=O)C1C (stereo not shown) [PCB]
- anaerobic bilin reductase assay, HPLC: catalyzing the reduction of BV to PCB (Fig. 7B: CmPCYA)
